This is an account of results in patent US7572939B2, “Type of soluble pentacene precursor” (Academia Sinica, priority 2006, dated 2009).

Common to all, as to type: physicochemical
A short description of data set [1]: Solubility in organic solvents. On the procedure:
Compound (3) is quite soluble in dichloromethane benzene, toluene, acetone, and tetrahydrofuran (all in the range of ˜2.0 mM i.e. about 0.7 mg/mL solvent) but is not soluble in methanol, ethanol, or acetonitrile. Compound (3) can be applied to a surface of an article by spin coating, spray coating, screen printing or ink-jet printing to form a film. The film can be dried in any of the conventional ways including air drying or with mild heating, i.e. below about 120° C. Subsequent to drying, a chemical reaction is initiated preferably by the application of heat resulting, inter alia, in the driving off of volatile components including CO.

The nature of data set [2]: Thermal stability by TGA (thermal gravimetric analysis) and DSC. As for the experimental part: Thermal initiated carbonyl extrusion can be depicted by both TGA (thermal gravimetric analysis) and DSC (differential scanning calorimetry) studies. […] The decarbonylation appears at 150° C. to yield pentacene, which decomposes at about 360° C. as measured by 5% weight loss. During the extrusion, Compound (3) loses about 9% weight corresponding to the weight ratio of CO in the molecule. The pentacene thus produced is stable up to temperatures of about 350° C. Above about 350° C., Compound (3) starts to experience thermal decomposition.
General: ^1H^13C NMR spectra were obtained on a Bruker AMX-400 spectrometer. Infrared spectra were recorded on a Perkin-Elmer 682 infrared spectrophotometer. Ultraviolet-visible absorption Spectra were recorded on a HP 8453 spectrophotometer. Differential scanning calorimetry was done on a Perkin-Elmer model DSC7 instrument. Thermal gravimetric analysis was performed by a Perkin-Elmer TGA7 analyzer.

The nature of data set [3]: Stability at ambient conditions.

Where two headings read alike, the source gives them in different places.

What is called solubility is how much of the substance goes into solution per volume. With `O=C1C2c3cc4ccccc4cc3C1c1cc3ccccc3cc12` [Compound (3), 6,13-dihydro-6,13-methanopentacene-15-one], the solubility entry in data set [1] (in methanol, ethanol or acetonitrile) is “not soluble”; in data set [1] (organic solvent or mixture, in dichloromethane, benzene, toluene, acetone and tetrahydrofuran (all in this range), read-out: solubility), around 2000 µM; in data set [1] (organic solvent or mixture, in dichloromethane, benzene, toluene, acetone and tetrahydrofuran, per mL solvent, read-out: solubility), around 700 µg/mL. For the same compound, the “temperature above which thermal decomposition starts” value in data set [2] (TGA) was “Above 350 °C”. Moreover, the “fragmentation (decarbonylation) temperature” value in data set [2] (TGA/DSC, 10° C./min heating rate, CO extrusion to yield pentacene) stood at 150 °C. Further, the “weight loss during CO extrusion” value in data set [2] (TGA, corresponds to weight ratio of CO in the molecule) is listed as “about 9%”. In addition, in data set [3], the stability entry is on record as “stable”.
As to `c1ccc2cc3cc4cc5ccccc5cc4cc3cc2c1` [pentacene], the decomposition temperature entry in data set [2] (TGA, as measured by 5% weight loss) was “about 360 °C”. The “temperature up to which stable” value in data set [2] (TGA, pentacene produced from the precursor) is “about 350 °C”.
